Assay results published in patent publication US20120244567A1, “HUMAN EMBRYONIC STEM CELLS FOR HIGH THROUGHOUT DRUG SCREENING” (BUCK INSTITUTE FOR RESEARCH ON AGING, priority 2009, published 2012).
Structures can show the parent of a compound that is named as a salt. Where two headings read alike, the source gives them in different places.

Tests used:
NSCs = system: NSCs
Description: RNAs isolated from NSCs and neurons with and without drug treatments were hybridized to Illumina HumanRef-8 BeadChip (Illumina, Inc., San Diego, Calif., performed by Microarray core facility at the Burnham Institute for Medical Research). The Illumina array data were normalized by the quantile method, and then transformed log 2 ratio values for a zero mean for expression values of each gene across all samples. The statistical and bioinformatics analyses were conducted by using R and the bioconductor package (www.bioconductor.org). The gene set enrichment analysis was conducted using the GSEA software (www.broad.mit.edu/gsea).

hESCs = assay: ATP assay in hESCs (96-well); type: cell-based, human; set-up: dose or concentration left out as unconfirmed; conditions: 48 h (FIG. 5)
Description: Media was changed every day for hESCs and every other day for NSCs and additionally changed prior to drug treatment. […] […] For all sampling, ESC and NSC plates were processed in parallel for one drug or control condition at a time.
For ATP measurements, the media was removed, cells were washed 1× in milliQ water and reconstituted in […] ATP-Lite Mammalian Lysis Buffer and shaken for 5 minutes. Two […] aliquots of lysed cells were replated onto separate 96 well plates for later protein measurements.
To identify compounds that are toxic to hESCs, hESC-derived NSCs, or both, we screened 720 FDA-approved drugs of the NINDS collection by testing the toxicity of each drug at a dose of 2.5 mM. For endpoint measurement of cell death caused by drug toxicity, we used a widely accepted ATP assay that measures changes in ATP level as an indicator of cellular response to cell death. In this assay, total ATP content per well was measured and normalized to the total cellular protein.

[1] = Amiloride sensitive Na channels, 4 hours of exposure
[2] = Amine transporters, 4 hours of exposure
[3] = Ca activated K channels, 4 hours of exposure
[4] = Calcium channels, 4 hours of exposure
[5] = Cl channels, 4 hours of exposure
[6] = Delayed rectifier K channels, 4 hours of exposure
[7] = H ion transporters, 4 hours of exposure
[8] = Rectifier K channels, 4 hours of exposure
[9] = Voltage gated Na channels, 4 hours of exposure

CCCCc1oc2ccccc2c1C(=O)c1cc(I)c(OCCN(CC)CC)c(I)c1 [Amiodarone Hydrochloride]
ERG expression, Treated NSC (NSCs): 32.9 | ACCN1 gene expression, Treated NSC (NSCs; [1]): 16.5 | ACCN2 gene expression, Treated NSC (NSCs; [1]): 185.7 | ACCN3 gene expression, Treated NSC (NSCs; [1]): 11 | SLC1A2 gene expression, Treated NSC (NSCs; [2]): 15.7 | SLC1A3 gene expression, Treated NSC (NSCs; [2]): 552.1 | SLC6A3 gene expression, Treated NSC (NSCs; [2]): 21.2 | SLC6A9 gene expression, Treated NSC (NSCs; [2]): 329.2 | SLC6A12 gene expression, Treated NSC (NSCs; [2]): 9.6 | KCNMB1 gene expression, Treated NSC (NSCs; [3]): 62.9 | KCNN1 gene expression, Treated NSC (NSCs; [3]): 6.5 | KCNN2 gene expression, Treated NSC (NSCs; [3]): 15.8 | KCNN3 gene expression, Treated NSC (NSCs; [3]): 0.7 | CACNA1A gene expression, Treated NSC (NSCs; [4]): 2 | CACNA1C gene expression, Treated NSC (NSCs; [4]): 25.9 | CACNB2 gene expression, Treated NSC (NSCs; [4]): 7.8 | CACNG2 gene expression, Treated NSC (NSCs; [4]): 2.5 | CLCN2 gene expression, Treated NSC (NSCs; [5]): 41.6 | CLCN3 gene expression, Treated NSC (NSCs; [5]): 566.5 | CLCN6 gene expression, Treated NSC (NSCs; [5]): 349.8 | CLCN7 gene expression, Treated NSC (NSCs; [5]): 1305.5 | CLIC1 gene expression, Treated NSC (NSCs; [5]): 122.2 | KCNA5 gene expression, Treated NSC (NSCs; [6]): 24.2 | KCNB1 gene expression, Treated NSC (NSCs; [6]): 32.8 | KCNB2 gene expression, Treated NSC (NSCs; [6]): 25 | ATP5B gene expression, Treated NSC (NSCs; [7]): 7030.3 | ATP6V0A2 gene expression, Treated NSC (NSCs; [7]): 190.2 | ATP6V0D1 gene expression, Treated NSC (NSCs; [7]): 3355 | ATP6V1A gene expression, Treated NSC (NSCs; [7]): 1155.9 | ATP6V1B2 gene expression, Treated NSC (NSCs; [7]): 385.4 | SLC2A1 gene expression, Treated NSC (NSCs; [7]): 1274.8 | SLC2A11 gene expression, Treated NSC (NSCs; [7]): 22.8 | SLC35B1 gene expression, Treated NSC (NSCs; [7]): 1769.8 | expression of Fos, FosB and DDIT3 (NSCs; NSCs, four hours after exposure): significantly up regulated | KCNC4 gene expression, Treated NSC (NSCs; [8]): 4.5 | KCND2 gene expression, Treated NSC (NSCs; [8]): 2.3 | KCNF1 gene expression, Treated NSC (NSCs; [8]): 189.2 | KCNG1 gene expression, Treated NSC (NSCs; [8]): 150.4 | KCNJ4 gene expression, Treated NSC (NSCs; [8]): 15.9 | KCNJ6 gene expression, Treated NSC (NSCs; [8]): 317.3 | KCNJ11 gene expression, Treated NSC (NSCs; [8]): 13.5 | KCNQ3 gene expression, Treated NSC (NSCs; [8]): 3.4 | KCNQ2 gene expression, Treated NSC (NSCs; Rectifier K channels, first line for this gene, 4 hours of exposure): 138.1 | KCNQ2 gene expression, Treated NSC (NSCs; Rectifier K channels, second line for this gene, 4 hours of exposure): 919.6 | SCN1A gene expression, Treated NSC (NSCs; [9]): 20.5 | SCN3A gene expression, Treated NSC (NSCs; [9]): 5.7 | SCN9A gene expression, Treated NSC (NSCs; [9]): 1.9 | expression of KLF 10 (intrinsic mitochondrial apoptotic pathway) (NSCs; differentiated cells, treated versus untreated cells): not altered | AFF1 expression, Treated NSC (NSCs; four hours after exposure): 50.8 | ARID3A expression, Treated NSC (NSCs; four hours after exposure): 2200 | ASCL2 expression, Treated NSC (NSCs; four hours after exposure): 36 | CREBL1 expression, Treated NSC (NSCs; four hours after exposure): 32.2 | DDIT3 expression, Treated NSC (NSCs; four hours after exposure): 2270 | DLX1 expression, Treated NSC (NSCs; four hours after exposure): 1550 | DLX2 expression, Treated NSC (NSCs; four hours after exposure): 54.3 | E2F2 expression, Treated NSC (NSCs; four hours after exposure): 635 | E2F7 expression, Treated NSC (NSCs; four hours after exposure): 711 | E2F8 expression, Treated NSC (NSCs; four hours after exposure): 82.7 | EGR1 expression, Treated NSC (NSCs; four hours after exposure): 3100 | EGR2 expression, Treated NSC (NSCs; four hours after exposure): 155 | ELF4 expression, Treated NSC (NSCs; four hours after exposure): 103 | ELF5 expression, Treated NSC (NSCs; four hours after exposure): 30.8 | ELK3 expression, Treated NSC (NSCs; four hours after exposure): 89.9 | ELK4 expression, Treated NSC (NSCs; four hours after exposure): 39.3 | EN1 expression, Treated NSC (NSCs; four hours after exposure): 48.7 | ETS1 expression, Treated NSC (NSCs; four hours after exposure): 952 | ETV1 expression, Treated NSC (NSCs; four hours after exposure): 34.4 | ETV4 expression, Treated NSC (NSCs; four hours after exposure): 672 | FOS expression, Treated NSC (NSCs; four hours after exposure): 1160 | FOSB expression, Treated NSC (NSCs; four hours after exposure): 174 | FOXA2 expression, Treated NSC (NSCs; four hours after exposure): 36.8 | FOXD1 expression, Treated NSC (NSCs; four hours after exposure): 79.7 | FOXF2 expression, Treated NSC (NSCs; four hours after exposure): 39.3 | FOXL2 expression, Treated NSC (NSCs; four hours after exposure): 120 | FOXM1 expression, Treated NSC (NSCs; four hours after exposure): 287 | GATA2 expression, Treated NSC (NSCs; four hours after exposure): 46.2 | GLI2 expression, Treated NSC (NSCs; four hours after exposure): 227 | HCLS1 expression, Treated NSC (NSCs; four hours after exposure): 40 | HEY2 expression, Treated NSC (NSCs; four hours after exposure): 37.9 | HIRA expression, Treated NSC (NSCs; four hours after exposure): 31.5 | HMGB2 expression, Treated NSC (NSCs; four hours after exposure): 2170 | HOXA2 expression, Treated NSC (NSCs; four hours after exposure): 770 | HOXA13 expression, Treated NSC (NSCs; four hours after exposure): 33.2 | HOXB1 expression, Treated NSC (NSCs; four hours after exposure): 30.6 | HOXB2 expression, Treated NSC (NSCs; four hours after exposure): 1100 | HOXB3 expression, Treated NSC (NSCs; four hours after exposure): 186 | HOXB4 expression, Treated NSC (NSCs; four hours after exposure): 198 | HOXB5 expression, Treated NSC (NSCs; four hours after exposure): 49.9 | HOXD3 expression, Treated NSC (NSCs; four hours after exposure): 70.2 | IRF1 expression, Treated NSC (NSCs; four hours after exposure): 38.9 | KLF10 expression, Treated NSC (NSCs; four hours after exposure): 38.1 | L3MBTL expression, Treated NSC (NSCs; four hours after exposure): 27.5 | LHX8 expression, Treated NSC (NSCs; four hours after exposure): 42.9 | MEF2C expression, Treated NSC (NSCs; four hours after exposure): 33.1 | MEOX1 expression, Treated NSC (NSCs; four hours after exposure): 178 | MSX2 expression, Treated NSC (NSCs; four hours after exposure): 41.9 | MYEF2 expression, Treated NSC (NSCs; four hours after exposure): 30.6 | NFATC3 expression, Treated NSC (NSCs; four hours after exposure): 32.4 | NFATC4 expression, Treated NSC (NSCs; four hours after exposure): 32.8 | NFKB2 expression, Treated NSC (NSCs; four hours after exposure): 68 | NR1D2 expression, Treated NSC (NSCs; four hours after exposure): 44.9 | NR2C2 expression, Treated NSC (NSCs; four hours after exposure): 65.3 | NR4A2 expression, Treated NSC (NSCs; four hours after exposure): 30.4 | NRK expression, Treated NSC (NSCs; four hours after exposure): 43.8 | PAX8 expression, Treated NSC (NSCs; four hours after exposure): 98.9 | PBX2 expression, Treated NSC (NSCs; four hours after exposure): 70.8 | PRDM1 expression, Treated NSC (NSCs; four hours after exposure): 94.7 | PRRX2 expression, Treated NSC (NSCs; four hours after exposure): 67.5 | RELB expression, Treated NSC (NSCs; four hours after exposure): 53.6 | RUNX1 expression, Treated NSC (NSCs; four hours after exposure): 43.3 | SALL1 expression, Treated NSC (NSCs; four hours after exposure): 80.9 | SIX4 expression, Treated NSC (NSCs; four hours after exposure): 185 | STAT6 expression, Treated NSC (NSCs; four hours after exposure): 55.8 | TAF5L expression, Treated NSC (NSCs; four hours after exposure): 77.4 | TAF13 expression, Treated NSC (NSCs; four hours after exposure): 35.2 | TBX2 expression, Treated NSC (NSCs; four hours after exposure): 46.9 | TEAD3 expression, Treated NSC (NSCs; four hours after exposure): 87 | TEAD4 expression, Treated NSC (NSCs; four hours after exposure): 235 | TEF expression, Treated NSC (NSCs; four hours after exposure): 32.4 | TGIF1 expression, Treated NSC (NSCs; four hours after exposure): 117 | TP53 expression, Treated NSC (NSCs; four hours after exposure): 267 | ZNF85 expression, Treated NSC (NSCs; four hours after exposure): 93.8 | ZNF197 expression, Treated NSC (NSCs; four hours after exposure): 32.8 | ZNF274 expression, Treated NSC (NSCs; four hours after exposure): 37.8 | ZNF367 expression, Treated NSC (NSCs; four hours after exposure): 30.9 | ZSCAN29 expression, Treated NSC (NSCs; four hours after exposure): 47.6 | effect seen in hESC (ATP levels) (hESCs): intermediate between NSCs and dopaminergic neurons
